According to PMC3740496, “Synthesis and biological activities of the respiratory chain inhibitor aurachin D and new ring versus chain analogues” (Beilstein Journal of Organic Chemistry, 2013):
≈ marks a conversion by molar mass, not a printed value.

Key:
Plasmodium falciparum = test system: Plasmodium falciparum; parameters: method as in PMID 18922036; details: cited from earlier work
[1] = test system: HCT-116 human colon carcinoma cells; test: Cytotoxicity, growth inhibition (MTT); format: cell-based; details: Homo sapiens, HCT-116, 120 h, read-out: IC50: half inhibitory concentration, HCT-116
Protocol: (§1) The cytotoxic activity of aurachin D (4) and analogues 9–11 and 17–19 was evaluated in growth inhibition experiments on mammalian cell lines (Table 2). After 5 days treatment, half inhibitory concentrations (IC50) were determined for human HCT-116 colon carcinoma and human K562 myelogenous leukemia cells. […]
(§2) was further incubated for 1.5 h. The medium was then discarded and 100 µL 2-propanol/10 N HCl (250:1) was added in order to dissolve formazan granules. The absorbance at 570 nm was measured using a microplate reader (EL808, Bio-Tek Instruments Inc.) and cell viability was expressed as a percentage relative to the respective solvent control. […]

[2] = test system: K562 myelogenous leukemia cells; test: Cytotoxicity, growth inhibition (MTT); format: cell-based; details: Homo sapiens, K562, 120 h; 5 days treatment; triplicate, mean ±SD; read-out: IC50: half inhibitory concentration, K562
Protocol: as §1, §2

[3] = test system: Plasmodium falciparum FcB1 (chloroquine-resistant); test: In vitro antiplasmodial assay ([3H]-hypoxanthine incorporation); format: cell-based; details: Plasmodium falciparum, FCB1; triplicate (except compound 24), mean ±SD; read-out: IC50 P. falciparum FcB1
Protocol: In vitro antiplasmodial assays: The chloroquine-resistant strain FcB1/Colombia of Plasmodium falciparum was maintained in vitro on human erythrocytes in RPMI 1640 medium supplemented by 8% (v/v) heat-inactivated human serum, at 37 °C, under an atmosphere of 3% CO2, 6% O2, and 91% N2. In vitro drug susceptibility assays was measured by [3H]-hypoxanthine incorporation as described. Drugs were prepared in DMSO at a 10 mg/mL concentration. Compounds were serially diluted two-fold with 100 µL culture medium in 96-well plates. Asynchronous parasite cultures (100 µL, 1% parasitaemia and 1% final hematocrite) were then added to each well and incubated for 24 h at 37 °C prior to the addition of 0.5 µCi of [3H]- hypoxanthine (GE Healthcare, France, 1 to 5 Ci·mmol/mL) per well. After a further incubation of 24 h, plates were frozen and thawed. Cell lysates were then collected onto glass-fiber filters and counted in a liquid scintillation spectrometer. The growth inhibition for each drug concentration was determined by comparison of the radioactivity incorporated in the treated culture with that in the control culture maintained on the same plate. The concentration causing 50% growth inhibition (IC50) was obtained from the drug concentration–response curve and the results were expressed as the mean values ± standard deviations determined from several […]
independent experiments. Chloroquine diphosphate (Sigma–Aldrich) was used as antimalarial drug control. […]

[4] = test system: Trypanosoma brucei gambiense strain Feo bloodstream forms; test: Antitrypanosomal assay (resazurin); format: cell-based; details: Trypanosoma brucei, GAMBIENSE; 72 h incubation; read-out: IC50 T. brucei gambiense
Protocol: page 10: independent experiments. Chloroquine diphosphate (Sigma–Aldrich) was used as antimalarial drug control. Antitrypanosomal activities: Bloodstream forms of Trypanosoma brucei gambiense strain Feo were cultured in HMI9 medium supplemented with 10% FCS at 37 °C under an atmosphere of 5% CO2. Antitrypanosomal assays were performed as previously described. In all experiments, log-phage cell cultures were harvested by centrifugation at 3,000g and immediately used. Drug assays were based on the conversion of a redox-sensitive dye (resazurin) to a fluorescent product by viable cells. Drug stock solutions were prepared in pure DMSO. […] After a 72 h incubation, resazurin solution was added in each well at the final concentration of 45 µM. Fluorescence was measured at 530 nm excitation and 590 nm emission wavelengths after a further 4 h incubation. Each inhibitor concentration was tested in triplicate. The percentage of inhibition of parasite growth rate was calculated by comparing the fluorescence of parasites maintained in the presence of drug to that in the absence of drug. DMSO was used as a control. IC50s were determined from the dose–response curves with drug concentrations ranging from 100 µM to 50 nM. Pentamidine was used as antitrypanosomal drug control. MIC determination: Indicator strains were obtained from the German Collection of Microorganisms and Cell Cultures (Deutsche Sammlung für Mikroorganismen und Zellkulturen, DSMZ) or were part of our internal strain collection. All microorganisms were handled under standard conditions recommended by the depositor. Overnight S10

Bacillus subtilis DSM10 = test: MIC determination; format: cell-based; details: Bacillus subtilis, DSM10; duplicate, mean ±SD
Protocol: (§3) MIC determination: Indicator strains were obtained from the German Collection of Microorganisms and Cell Cultures (Deutsche Sammlung für Mikroorganismen und Zellkulturen, DSMZ) or were part of our internal strain collection. All microorganisms were handled under standard conditions recommended by the depositor. Overnight […]
(§4) cultures of bacteria were prepared in EBS medium (0.5% casein peptone, 0.5% proteose peptone, 0.1% meat peptone, 0.1% yeast extract; pH 7.0). Yeasts and molds were grown in Myc medium (1% phytone peptone, 1% glucose, 50 mM
(§5) HEPES, pH 7.0). The overnight cultures of microorganisms were diluted to OD600 0.01 (bacteria) or 0.05 (yeasts/molds) in the respective growth medium. Serial dilutions of compounds were prepared as duplicates in sterile 96-well plates. The cell suspension was added and microorganisms were grown overnight on a microplate shaker (900 rpm, 30 °C or 37 °C). Growth inhibition was assessed by measuring the OD600 on a plate reader (POLARstar, BMG Labtech). MIC50 values were determined as averages relative to respective control samples by sigmoidal curve fitting. […]

Escherichia coli (TolC) = test: MIC determination; format: cell-based; details: read-out: MIC50 Escherichia coli (TolC)
Protocol: as §3, §4, §5

[5] = test system: Escherichia coli DH5α (wt); test: MIC determination; format: cell-based; details: duplicate, mean ±SD
Protocol: as §3, §4, §5

[6] = test system: Klebsiella pneumoniae DSM30104; test: MIC determination; format: cell-based; details: duplicate, mean ±SD
Protocol: as §3, §4, §5

Micrococcus luteus = test: MIC determination; format: cell-based; details: duplicate, mean ±SD
Protocol: as §3, §4, §5

[7] = test system: Staphylococcus aureus DSM11822 (MRSA); test: MIC determination; format: cell-based; details: duplicate, mean ±SD
Protocol: as §3, §4, §5

[8] = test system: Staphylococcus aureus Newman (MSSA); test: MIC determination; format: cell-based; details: duplicate, mean ±SD
Protocol: as §3, §4, §5

[9] = test system: Vero cells (nontumor cells); test: Cytotoxicity on Vero cells (MTT); format: cell-based; details: 48 h incubation
Protocol: was further incubated for 1.5 h. The medium was then discarded and 100 µL 2-propanol/10 N HCl (250:1) was added in order to dissolve formazan granules. The absorbance at 570 nm was measured using a microplate reader (EL808, Bio-Tek Instruments Inc.) and cell viability was expressed as a percentage relative to the respective solvent control. VERO cells: VERO cells were seeded into 96-well microplates at 10^5 cells per mL in RPMI supplemented with 10% foetal calf serum.
After 24 h, the cells were washed and two microliters of two-fold serial dilutions of each compound (10 mg/mL) was added to 100 μL of medium. Cells were then incubated for 48 h at 37 ° C under a 5% CO2 atmosphere. At the end of incubation, 20 µL of MTT solution (5 mg/mL) was added to each well and further incubated for 4 h at 37 °C to allow the formation of formazan. The crystals of formazan were then dissolved with 100 µL of a freshly prepared solution of sodium dodecyl sulfate (SDS) 10% (15 mL) and HCl 1 N (150 µL). The optical density of each well was measured at 595 nm using a multiwell plate reader. The 50% inhibition concentration was then determined by curve fitting.
MMP assay: Human U-2 OS osteosarcoma cells (HTB-96) were obtained from the American Type Culture Collection (ATCC) and were cultured under the conditions recommended by the depositor. Cells from actively growing cultures were harvested and seeded at 8 × 10^3 cells per well in 96-well imaging plates (BD Falcon). After 1 d cells reached approximately 60% confluency and were treated with aurachin analogues at the assigned concentrations for 16 h. In addition, cells were stimulated with 1 µM FCCP [carbonyl cyanide 4-(trifluoromethoxy)phenylhydrazone] as a positive control 1 h prior to the measurement. For labeling, cells were washed twice with assay buffer ([…], 5.4 mM KCl, 2 mM MgCl2, 10 mM glucose, 2 mM CaCl2, 10 mM HEPES; pH 7.35) and 100 µL of a staining solution (50 nM TMRM,

Plasmodium = test system: Plasmodium; parameters: method as in PMID 15215101; details: read-out: antiplasmodial IC50; cited from earlier work

For `CC(C)=CCC/C(C)=C/CC/C(C)=C/Cc1c(O)c(C)[n+]([O-])c2ccccc12` [aurachin B], the “IC50 Plasmodium falciparum” value (Plasmodium falciparum) is listed as “around 20 ng/mL”.
For `CC(C)=CCC/C(C)=C/CC/C(C)=C/Cc1c(C)n(O)c2ccccc2c1=O` [aurachin C], the “IC50 Plasmodium falciparum” value (Plasmodium falciparum) is listed as “around 20 ng/mL” and the “fold higher antiplasmodial activity compared to aurachin D” value (Plasmodium falciparum) is listed as “approximately 200 fold”.
For `CC(C)=CCC/C(C)=C/CC/C(C)=C/Cc1c(C)n2c(=O)[nH]c3cccc(c1=O)c32` [aurachin E], the “IC50 Plasmodium falciparum” value (Plasmodium falciparum) is given as “around 20 ng/mL”.
With `CC(C)=CCc1c(C)[nH]c2ccccc2c1=O` [compound 10] the IC50 [1] was over 10 µg/mL, the IC50 [2] was about 10 µg/mL (≈ 44 µM) and the IC50 [3] was 0.55 ± 0.16 µg/mL (≈ 2.42 µM). For the same molecule, the IC50 [4] was 5.8 µg/mL (≈ 25.5 µM), the MIC50 (Bacillus subtilis DSM10) was 0.22 ± 0.06 µg/mL (≈ 0.968 µM) and the MIC50 (Escherichia coli (TolC)) was 6.55 ± 1.36 µg/mL (≈ 28.8 µM). It also gave an MIC50 [5] of over 64 µg/mL, an MIC50 [6] of over 64 µg/mL and an MIC50 (Micrococcus luteus) of 14.3 ± 1.29 µg/mL (≈ 63 µM). It also gave an MIC50 [7] of 11.3 ± 1.44 µg/mL (≈ 49.7 µM) and an MIC50 [8] of 9.66 ± 2.39 µg/mL (≈ 42.5 µM).
Molecule `Cc1[nH]c2ccccc2c(=O)c1C` [compound 11] has an IC50 [1] of over 10 µg/mL, an IC50 [2] of over 10 µg/mL and an IC50 [3] of 2.3 ± 1.4 µg/mL (≈ 13.3 µM). The IC50 [4] was over 10 µg/mL, the MIC50 (Bacillus subtilis DSM10) was 49 ± 6.26 µg/mL (≈ 283 µM) and the MIC50 (Escherichia coli (TolC)) was over 64 µg/mL. It also gave an MIC50 [5] of over 64 µg/mL, an MIC50 [6] of over 64 µg/mL and an MIC50 (Micrococcus luteus) of over 64 µg/mL. It also gave an MIC50 [7] of over 64 µg/mL and an MIC50 [8] of over 64 µg/mL.
In the case of `Cc1c2c(c3ccccc3[n+]1[O-])O[C@H]([C@](C)(O)CCC1OC1(C)C)C2` (stereo partly shown) [compound 22], the IC50 [9] is reported as over 50 µg/mL.
In the case of `Cc1cc(=O)c2ccccc2[nH]1` [compound 23, 2-methyl-4(1H)-quinolone, reference compound], the IC50 [3] is reported as 7.7 ± 2.5 µg/mL (≈ 48.4 µM) and the IC50 [4] is reported as over 10 µg/mL.
`Cc1[nH]c2ccccc2c(=O)c1Br` [compound 24, 3-bromo-2-methyl-4(1H)-quinolone] gave an IC50 [3] of 1.1 µg/mL (≈ 4.62 µM) and an IC50 [4] of 1.7 µg/mL (≈ 7.14 µM).
In the case of `Cc1c(C)n(O)c2ccccc2c1=O` [compound 25, N-hydroxy-2,3-dimethyl-4(1H)-quinolone], the IC50 [3] is reported as 2.7 ± 1.3 µg/mL (≈ 14.3 µM) and the IC50 [4] is reported as over 10 µg/mL.
For `CC(C)=CCC/C(C)=C/CC/C(C)=C/CO` [farnesol], the IC50 (Plasmodium) is given as 64 µM.
